Assay results as given in US6689799B1, “1,4-dihydropyridine-5-carboxylic acid ester derivatives and method for the preparation thereof” (Rephartox, priority 1999, dated 2004).
≈ marks a conversion by molar mass, not a printed value. Like-named read-outs stand apart in the source and are kept apart here.

Key:
HeLa-cells = assay: Minimal toxic concentration, cell morphology of HeLa-cells; format: cell-based
[1] = test system: Cytomegalovirus AD-169 strain; assay: Cytomegalovirus antiviral activity, AD-169 strain; format: cell-based; conditions: Human betaherpesvirus 5, AD169, read-out: IC50: concentration at which the virus production is inhibited by 50%
Experimental: (§1) The compounds were tested for antiviral activity by the Rega Institute (Leuven, Belgium). The standard experiments for determining the biological activity of the compounds according to the invention were performed with CMV (Cytomegalovirus), varicella zoster virus, and RSV (respiratory syncytial virus). [table]

[2] = test system: Cytomegalovirus Davis strain; assay: Cytomegalovirus antiviral activity, Davis strain; format: cell-based; conditions: Human betaherpesvirus 5, read-out: IC50: concentration at which the virus production is inhibited by 50%
Experimental: as §1

[3] = Cytotoxicity, reduction of cell growth (Table 1, CMV); format: cell-based; conditions: Table 1, cytomegalovirus
TK − VZV 07/1 strain = assay: microbe, parasite or virus in culture; format: cell-based, Varicella zoster virus; conditions: Human alphaherpesvirus 3, read-out: IC50: concentration at which the virus production is inhibited by 50%
Experimental: (§2) The compounds were tested for antiviral activity by the Rega Institute (Leuven, Belgium).
(§3) The standard experiments for determining the biological activity of the compounds according to the invention were performed with CMV (Cytomegalovirus), varicella zoster virus, and RSV (respiratory syncytial virus).

TK − VZV YS/R strain = assay: microbe, parasite or virus in culture; format: cell-based, Varicella zoster virus; conditions: Human alphaherpesvirus 3, read-out: IC50: concentration at which the virus production is inhibited by 50%
Experimental: as §2, §3

[4] = Cytotoxicity, reduction of cell growth (Table 2, VZV); format: cell-based; conditions: Table 2, varicella zoster virus
[5] = test system: Respiratory syncytial virus; assay: Respiratory syncytial virus antiviral activity; format: cell-based; conditions: human respiratory syncytial virus, read-out: IC50: concentration at which the virus production is inhibited by 50%
Experimental: as §2, §3

[6] = microscopically detectable change in normal cell morphology of HeLa-cells

Molecule | MTC: Minimal toxic concentration (HeLa-cells) [mg/mL] | IC50 [1] [µg/mL] | IC50 [2] [µg/mL] | CC50 [3] [µg/mL] | IC50 (TK − VZV 07/1 strain) [µg/mL] | IC50 (TK − VZV YS/R strain) [µg/mL] | CC50 [4] [µg/mL] | IC50 [5] [µg/mL] | MTC: Minimal toxic concentration (HeLa-cells; [6]) [mg/mL] | melting point [°C]
4-[{2-(7-Coumarinyloxy)ethoxy}phenyl)-3,5-dimethoxycarbonyl-2,6-dimethyl-1,4-dihydropyridine.ethylacetate [Example 30] | 100 |  |  |  |  |  |  |  |  | 
Nc1nc2c(ncn2COC(CO)CO)c(=O)[nH]1 [DHPG, 9-[(1,3-dihydroxy-2-propoxy)methyl]guanine, reference compound] |  | 1.8 (≈ 7.05 µM) | 1.8 (≈ 7.05 µM) | > 200 |  |  |  |  |  | 
COC(=O)C1=C(C)NC(C)=C(C(=O)OCCOc2cc(=O)oc3ccccc23)C1c1ccccc1 (centres unmarked) [Example 1, 2,6-Dimethyl-4-phenyl-5-methoxycarbonyl-3-[{2-(coumarin-4-yloxy)ethoxy}carbonyl]-1,4-dihydropyridine] |  |  |  |  | 1.5 (≈ 3.15 µM) | 1 (≈ 2.1 µM) | 4.5 (≈ 9.46 µM) | 2.4 (≈ 5.05 µM) | 100 | 
COC(=O)C1=C(C)NC(C)=C(C(=O)OCCCOc2cc(=O)oc3ccccc23)C1c1ccccc1 (centres unmarked) [Example 4, 3-[{3-(Coumarin-4-yloxy)-1-propoxy}carbonyl]-2,6-dimethyl-5-methoxycarbonyl-4-phenyl-1,4-dihydropyridine] |  |  |  |  |  |  |  | 0.16 (≈ 0.327 µM) | 2.8 | 
COC(=O)C1=C(C)NC(C)=C(C(=O)OCC(C)(C)COc2cc(=O)oc3ccccc23)C1c1ccccc1 (centres unmarked) [Example 6, 3-[{3-(Coumarin-4-yloxy)-2,2-dimethyl-1-propoxy}carbonyl]-2,6-dimethyl-5-methoxycarbonyl-4-phenyl-1,4-dihydropyridine] |  |  |  |  | 2 (≈ 3.86 µM) | 1 (≈ 1.93 µM) | 8.5 (≈ 16.4 µM) |  |  | 
CCOC(=O)C1=C(C)NC(COc2cc(=O)oc3ccccc23)=C(C(=O)OCC)C1c1cccc([N+](=O)[O-])c1 (centres unmarked) [Example 20, 2-(Coumarin-4-yloxymethyl)-3,5-diethoxycarbonyl-6-methyl-4-(3-nitrophenyl)-1,4-dihydropyridine] |  |  |  |  | 0.07 (≈ 0.131 µM) | 0.05 (≈ 0.0935 µM) | 1.6 (≈ 2.99 µM) |  |  | 76 to 79
CCOC(=O)C1=C(C)NC(COc2cc(=O)oc3ccccc23)=C(C(=O)OCC)C1c1ccccc1C(F)(F)F (centres unmarked) [Example 24, 2-(Coumarin-4-yloxymethyl)-3,5-diethoxycarbonyl-6-methyl-4-(2-trifluoromethylphenyl)-1,4-dihydropyridine] |  | 2.4 (≈ 4.3 µM) | 2.3 (≈ 4.13 µM) | > 200 | 2.5 (≈ 4.48 µM) | 1.5 (≈ 2.69 µM) | > 200 | 0.8 (≈ 1.43 µM) | 4.0 | 
